Data reported in paper PMC12307992, “The Potential Influence of Associated Antidepressants on the Pharmacokinetic Profile of Esketamine in Patients Affected by Treatment-resistant Depression” (Current Neuropharmacology, 2025).

Experiments:
[1] = set-up: method as in earlier work; conditions: ref Data on File. Esketamine. Summary of Clinical Pharmacology. Janssen Research & Development, LLC. EMDS-ERI-149761559; 2018; cited from earlier work
[2] = Adverse events 20 min post-esketamine (blood pressure, dizziness, confusion, ACES) in relation to serum levels; type: in vivo, patients
Protocol: Adverse events of intranasal administration of esketamine were evaluated 20 min post-esketamine initiation, such as changes in systolic and diastolic blood pressure, vertigo, dissociation, dizziness, sedation, headache, nausea and vomiting, and confusion.
(§1) To assess the changes in clinical status with treatment, we administered the following clinical scales at BL and one month after the first intranasal esketamine: clinician-rated Brief Psychiatric Rating Scale-version 4.0 (BPRS-24) to evaluate psychiatric symptoms; Montgomery-Åsberg Depression Rating Scale (MADRS) and Hamilton Depression Rating Scale (HAM-D) to assess depression; Hamilton Anxiety Rating Scale (HAM-A) to assess anxiety; Young Mania Rating Scale (YMRS) to assess manic symptoms, Clinical Global Impressions Scale (CGI) to assess the overall severity (CGI-S) and improvement (CGI-I), with CGI-S administered at both timepoints and CGI-I only at 1 month. Self-rated scales included the Beck Depression Inventory, 2nd edition (BDI-II), used to assess the cognitive aspects of depression (Beck’s cognitive triad), and the World Health Organization Quality of Life Scale-Brief (WHOQOL-BREF) to assess patient’s quality-of-life (QoL). For all scales save the WHOQOL-BREF, higher scores indicate higher psychopathology, while for the WHOQOL-BREF, higher scores reflect better QoL. Furthermore, we administered the clinician-rated Agitation-Calmness Evaluation Scale (ACES) to assess agitation vs. sedation during the first esketamine administration phase (BL to 72 hours). ACES is a single-item scale, in which scores from 1 to 3 are inversely related to the degree of agitation, and scores from 5 to 9 are directly related to calmness and sedation, until the score of 8 and 9, which indicate deep sleep and unarousable state, respectively. Finally, we evaluated dissociation with the Clinician-Administered Dissociative States Scale (CADSS) following the first esketamine administration (BL to 72 hours).
After having applied the Shapiro-Wilk test to ascertain the normality of distribution of our sample and the Mauchly sphericity test to assess the validity of the Analysis of Variance (ANOVA), we proceeded by performing parametric tests. We used the ANOVA-1way to compare samples for continuous variables and Fishers Least Significant Difference (LSD) to test differences in nominal variables. We used Grubbs’ test (alpha=0.05) to identify statistically significant outliers to exclude them from further analyses. Correlations were sought through Pearson’s r correlation coefficient. Besides concentrations, we calculated the area under the curve (AUC) as stated above. For all other calculations, we used the IBM Statistical Package for the Social Sciences (SPSS), version 29.0 (September 2022, Armonk, New York: IBM Corporation).

[3] = Clinical rating scales at baseline and one month after first intranasal esketamine; type: in vivo, patients
Text: as §1

[4] = after intranasal administration; cited from earlier work
[5] = phase 3 studies; cited from earlier work
[6] = Serum esketamine levels (LC-MS/MS) after intranasal esketamine 56 mg in TRD patients; conditions: for AUC: human, serum, other: intranasal, 56 mg, AUC value, 0-72 h
[7] = Salivary esketamine levels (LC-MS/MS) after intranasal esketamine 56 mg in TRD patients
[8] = 20 min post-esketamine, 15 patients
[9] = one month following initial esketamine administration, 15 patients

CC[C@H]1OC(=O)[C@H](C)[C@@H](O[C@H]2C[C@@](C)(OC)[C@@H](O)[C@H](C)O2)[C@H](C)[C@@H](O[C@@H]2O[C@H](C)C[C@H](N(C)C)[C@H]2O)[C@](C)(OC)C[C@@H](C)C(=O)[C@H](C)[C@@H](O)[C@]1(C)O [clarithromycine]
Effect of co-treatment on the PK profile of esketamine [1]: negligible effect

CN[C@]1(c2ccccc2Cl)CCCCC1=O [esketamine, (S)-isomer of ketamine]
Correlation (χ2) of confusion with serum esketamine levels ([2]; 20 min post-administration, p < 0.05): 3.830
Correlation (χ2) of dizziness with serum esketamine levels ([2]; 20 min post-administration, p = 0.043): 4.114
Patients with blood pressure reduced [2, 8]: 28.3%
Patients with blood pressure relatively unchanged [2, 8]: 28.3%
Patients with a rise in systolic blood pressure ([2]; 20 min post-esketamine, 23 of 53 patients): 43.4%
Correlation (r) between serum esketamine values and changes in systolic blood pressure ([2]; at 20 min, p = 0.0003): 0.23
Correlation (r) between esketamine levels and changes in ACES ([2]; at 20 minutes, p = 0.02): 0.1
Global scores of all clinical scales (BPRS-Total, MADRS, BDI, WHOQOL-BREF or CGI) ([3]; 1 month after esketamine administration): improved
YMRS values ([3]; absolute score, all patients): < 8
Patients in whom HAM-A values dropped ([3]; baseline to 1 month): 51 of 53
Patients with YMRS scores increased [3, 9]: 28.3%
Patients with YMRS scores unchanged [3, 9]: 28.3%
Patients with YMRS scores decreased ([3]; one month following initial esketamine administration, 23 patients): 43.4%
elimination half-life (t½) [4]: 7 to 12 h
time to reach maximum plasma concentrations (Tmax) [4]: 0.333 to 0.667 h
Patients with a rise in blood pressure [5]: < 10%
Serum esketamine levels after 72 hours ([6]; 56 mg intranasal, all groups): undetectable
AUC value of patient greater than average value of the group ([6]; group 2 patient on oxcarbazepine vs group 2 average): 46%
AUC ([6]; average of group, group 1 (paroxetine/fluoxetine)): 868 ng·h/mL
AUC ([6]; average of group, group 2 (duloxetine)): 655 ng·h/mL
AUC ([6]; average of group, group 3 (venlafaxine/desvenlafaxine)): 857 ng·h/mL
AUC ([6]; average of group, group 4 (sertraline/citalopram/escitalopram)): 419 ng·h/mL
AUC ([6]; average of group, group 5 (vortioxetine)): 439 ng·h/mL
AUC ([6]; average of group, group 6 (TCAs/mirtazapine/trazodone)): 705 ng·h/mL
AUC ([6]; single patient, group 1 patient on paroxetine, bupropion, valproate and atorvastatine): 628 ng·h/mL
AUC ([6]; single patient, group 2 patient also on oxcarbazepine): 954 ng·h/mL
AUC ([6]; single patient, group 3 patient also on valproate): 298 ng·h/mL
AUC ([6]; single patient, group 3 patient also on valproate and atorvastatin): 599 ng·h/mL
AUC ([6]; single patient, group 4 patient also on topiramate): 921 ng·h/mL
AUC ([6]; single patient, group 5 patient also on prednisone): 957 ng·h/mL
AUC ([6]; single patient, group 6 patient on mirtazapine and oxcarbazepine): 260 ng·h/mL
Salivary levels of esketamine at 20 min relative to serum levels ([7]; 56 mg intranasal): several-fold greater than serum levels
Esketamine levels in the saliva after 72 hours ([7]; a few patients on fluoxetine/paroxetine, duloxetine or venlafaxine/desvenlafaxine): still detectable
concentration at 20 min ([7]; human, saliva, other: intranasal, 56 mg): > 1000 ng/mL
